Measured values: patent US20210238170A1, “5,5-Difluoro- and 5-Fluoro-5-Methyl-C-Glycoside Derivatives Useful As Dual SGLT1 / SGLT2 Modulators” (Janssen Pharmaceutica NV, priority 2018, published 2021)
Like-named read-outs stand apart in the source and are kept apart here.

Assays:
human SGLT2 = molecular target: T1, human SGLT2 (Homo sapiens, UniProt P31639); test: SGLT2 in vitro assay: Na-dependent 14C-AMG uptake in CHO-K1 cells stably expressing human SGLT2; type: cell-based; conditions: for inhibition at 0.3 µM: read-out: SGLT2 % Inh @ 0.3 μM
T1 construct: expressed in transfected cells
T1 sequence (P31639 1-672): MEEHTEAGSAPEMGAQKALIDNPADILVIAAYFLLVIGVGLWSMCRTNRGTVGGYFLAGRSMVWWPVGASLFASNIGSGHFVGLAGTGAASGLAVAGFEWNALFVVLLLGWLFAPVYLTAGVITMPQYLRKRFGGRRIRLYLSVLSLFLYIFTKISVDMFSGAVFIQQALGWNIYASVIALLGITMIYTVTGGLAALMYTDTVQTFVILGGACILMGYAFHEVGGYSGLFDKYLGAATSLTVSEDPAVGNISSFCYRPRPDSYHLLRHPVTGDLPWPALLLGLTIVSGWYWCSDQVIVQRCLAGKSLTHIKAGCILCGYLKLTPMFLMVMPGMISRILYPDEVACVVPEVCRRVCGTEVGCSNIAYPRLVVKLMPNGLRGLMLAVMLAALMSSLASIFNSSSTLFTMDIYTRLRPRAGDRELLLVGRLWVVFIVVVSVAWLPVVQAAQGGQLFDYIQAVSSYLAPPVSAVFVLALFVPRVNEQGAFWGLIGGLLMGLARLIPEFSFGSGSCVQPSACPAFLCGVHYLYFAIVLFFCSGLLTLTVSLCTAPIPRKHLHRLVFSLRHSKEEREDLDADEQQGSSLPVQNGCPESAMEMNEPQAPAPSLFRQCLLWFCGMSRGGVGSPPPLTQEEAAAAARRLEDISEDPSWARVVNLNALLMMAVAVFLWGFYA
Method: (§1) Biological Example 1: SGLT1 and SGLT2 In Vitro Assays
(§2) The ability of the compounds of formula (I) of the present invention to treat an SGLT-mediated condition was determined using the following procedures:
(§3) SGLT1 and SGLT2 were cloned in form of cDNA from human small intestine (Genbank M24847), and from human kidney (Genbank M95549), respectively. Subsequently, each full cDNA was subcloned into pcDNA with each construct's integrity verified through follow-on sequencing. To generate CHO-K1 cells that stably express human SGLT1 or human SGLT2, CHO-K1 cells were transfected using DMRIE-C reagent (Life Technologies, Gaithersburg, Md.). Transfected cells were then selected in the presence of 500 μg/ml of the Geneticin (G418 Cellgro Catalog No. 30234-CI)
(§4) Individual clones were then characterized using the following cell-based assay for sodium-dependent glucose transport:
(§5) Inhibition of SGLT1 and SGLT2 activity was assessed in CHO K1 cells stably expressing either human SGLT1 or SGLT2, using the SGLT specific glucose analog methyl-glucopyranoside (Sigma Catalog No. M-9376). Cells were plated (45,000 cells/well) in white wall 96-well plates (COSTAR, Cat #3903) for 24 hours in growth medium, then a final concentration of 10 mM Na-Butyrate (ALDRICH Cat #30341-0) was added. The cells were incubated for 24 hours. On the day of the assay, cells were rinsed and treated with test compounds (at concentrations of 0.001 μM to 10 μM) in assay buffer (50 mM HEPES, 20 mM Tris base, 5 mM KCl, 1 mM MgCl2, 1 mM CaCl2 and 137 mM NaCl, pH 7.4) for 10 minutes. Cells were then incubated with ^14C-a-methyl-d-glucopyranoside (AMG, Amersham Catalog No. CFB 76), using 0.07 μCi per well in 500 µM AMG final concentration. The cells were incubated for 2 hours at 37° C. with 5% CO2 and washed two times with ice-cold Phosphate Buffer Solution (CELLGRO Catalog No. 21030-CV). The cells were then solubilized by adding 60 μl of MICROSCINT™ 20 and the Na-dependent ^14C-AMG uptake was quantified by measuring radioactivity. Plates were counted in a TopCount (Packard, Meriden, Conn.)
(§6) Representative compounds of the present invention were tested according to the procedures as described in Biological Example 1 and 2 above, with results as listed in Table 5, below. Results are reported as the %-inhibition or IC50 value. Variability for the functional assay was typically within 20%.

human SGLT1 = molecular target: T2, human SGLT1 (Homo sapiens, UniProt P13866); test: SGLT1 in vitro assay: Na-dependent 14C-AMG uptake in CHO-K1 cells stably expressing human SGLT1; type: cell-based; conditions: for inhibition at 0.3 µM: read-out: SGLT1 % Inh @ 0.3 μM
T2 construct: expressed in transfected cells
T2 sequence (P13866 1-664): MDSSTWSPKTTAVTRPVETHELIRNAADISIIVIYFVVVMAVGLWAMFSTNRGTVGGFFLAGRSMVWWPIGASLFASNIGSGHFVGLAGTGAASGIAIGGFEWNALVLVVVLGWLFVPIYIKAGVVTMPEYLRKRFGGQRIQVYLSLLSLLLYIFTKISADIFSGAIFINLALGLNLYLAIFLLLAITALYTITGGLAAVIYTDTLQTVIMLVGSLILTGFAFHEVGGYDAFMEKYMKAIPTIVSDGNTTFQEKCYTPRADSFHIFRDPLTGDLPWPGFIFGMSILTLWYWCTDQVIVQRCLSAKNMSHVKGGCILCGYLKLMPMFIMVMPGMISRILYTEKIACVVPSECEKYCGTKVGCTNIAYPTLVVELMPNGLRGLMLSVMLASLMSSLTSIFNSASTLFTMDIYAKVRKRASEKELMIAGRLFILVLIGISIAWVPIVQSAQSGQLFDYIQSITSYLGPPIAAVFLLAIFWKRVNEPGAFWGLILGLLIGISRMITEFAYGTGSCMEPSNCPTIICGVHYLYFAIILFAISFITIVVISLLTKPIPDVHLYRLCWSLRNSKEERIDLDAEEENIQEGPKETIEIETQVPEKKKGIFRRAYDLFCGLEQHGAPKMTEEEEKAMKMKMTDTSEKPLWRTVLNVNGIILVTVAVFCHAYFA
Method: as §1, §2, §3, §4, §5, §6

[1] = @ 0.3 μM, CHO-K1 cells stably expressing human SGLT2, 14C-AMG uptake
[2] = CHO-K1 cells stably expressing human SGLT2, 14C-AMG uptake, compounds of formula (I) where R0 is fluoro
[3] = @ 0.3 μM, CHO-K1 cells stably expressing human SGLT1, 14C-AMG uptake
[4] = CHO-K1 cells stably expressing human SGLT1, 14C-AMG uptake, compounds of formula (I) where R0 is fluoro

Row | Structure (SMILES) | inhibition at 0.3 µM (human SGLT2; [1]) [%] | IC50 (human SGLT2; [2]) [nM] | inhibition at 0.3 µM (human SGLT1; [3]) [%] | IC50 (human SGLT1; [4]) [nM] | SGLT2 % Inh @ 0.3 μM (human SGLT2; [1]) [%] | SGLT1 % Inh @ 0.3 μM (human SGLT1; [3]) [%] | also measured
1 | COc1cc(OC)c([C@@H]2O[C@H](CO)C(F)(F)[C@H](O)[C@H]2O)cc1Cc1cc2c(s1)CCN(C(C)=O)C2 [Compound 77] |  |  |  |  | 51.4 | 22.6 | 
2 | CCc1cc(O)c([C@@H]2O[C@H](CO)C(F)(F)[C@H](O)[C@H]2O)cc1Cc1cc2ccccc2s1 [Compound 26, (2S,3R,4R,6R)-2-[5-(benzothiophen-2-ylmethyl)-4-ethyl-2-hydroxy-phenyl]-5,5-difluoro-6-(hydroxymethyl)tetrahydropyran-3,4-diol] |  | 32.9 |  | 44 |  |  | 
3 | COc1ccc(Cc2cc([C@@H]3O[C@H](CO)C(F)(F)[C@H](O)[C@H]3O)c(OC)cc2Cl)cc1 [Compound 87] |  |  |  |  | 76.0 | 8.4 | 
4 | Cc1cc(O)c([C@@H]2O[C@H](CO)C(F)(F)[C@H](O)[C@H]2O)cc1Cc1ccc(-c2ccc(F)cc2)s1 [Compound 68] |  |  |  |  | 69.5 | 26.6 | 
5 | COc1cc(C)c(Cc2ccc(C3CC3)cc2)cc1[C@@H]1O[C@H](CO)C(F)(F)[C@H](O)[C@H]1O [Compound 123] |  |  |  |  | 89.3 | 30.6 | 
6 | CCc1ccc(Cc2cc([C@@H]3O[C@H](CO)C(F)(F)[C@H](O)[C@H]3O)cc3c2OCC3)cc1 [Compound 58] |  |  |  |  | 81.9 | 36.8 | 
7 | COc1cc(Cl)c(Cc2cc3ccccc3s2)cc1[C@@H]1O[C@H](CO)C(F)(F)[C@H](O)[C@H]1O [Compound 36, (2S,3R,4R,6R)-2-[5-(benzothiophen-2-ylmethyl)-4-chloro-2-methoxy-phenyl]-5,5-difluoro-6-(hydroxymethyl)tetrahydropyran-3,4-diol] | 48.6 | 4.3 | 56.6 | 221 |  |  | 
8 | CCc1cc(O)c([C@@H]2O[C@H](CO)[C@@](C)(F)[C@H](O)[C@H]2O)cc1Cc1ccc(OC)cc1 [Compound 16, (2S,3R,4R,5S,6R)-2-[4-ethyl-2-hydroxy-5-[(4-methoxyphenyl)methyl]phenyl]-5-fluoro-6-(hydroxymethyl)-5-methyl-tetrahydropyran-3,4-diol] |  |  |  |  |  |  | inhibition at 0.3 µM (human SGLT2; 0.3 μM, CHO-K1 cells expressing human SGLT2): 85.5%; IC50 (human SGLT2; CHO-K1 cells expressing human SGLT2, 14C-AMG uptake): 2 nM; inhibition at 0.3 µM (human SGLT1; 0.3 μM, CHO-K1 cells expressing human SGLT1): 53%; IC50 (human SGLT1; CHO-K1 cells expressing human SGLT1, 14C-AMG uptake): 151 nM
9 | OC[C@H]1O[C@@H](c2cc(Cc3ccc([C@@H]4CCOC4)cc3)c(Cl)cc2O)[C@H](O)[C@@H](O)C1(F)F [Compound 46] |  |  |  |  | 89.0 | 18.4 | 
10 | COc1cc(O)c([C@@H]2O[C@H](CO)C(F)(F)[C@H](O)[C@H]2O)cc1Cc1cc2ccccc2s1 [Compound 31, (2S,3R,4R,6R)-2-[5-(benzothiophen-2-ylmethyl)-2-hydroxy-4-methoxy-phenyl]-5,5-difluoro-6-(hydroxymethyl)tetrahydropyran-3,4-diol] |  | 24.1 |  | 165 |  |  | 
11 | Cc1cc(O)c([C@@H]2O[C@H](CO)C(F)(F)[C@H](O)[C@H]2O)cc1Cc1ccc2c(c1)OCCO2 [Compound 56, (2S,3R,4R,6R)-2-(5-((2,3-dihydrobenzo[b][1,4]dioxin-6-yl)methyl)-2-hydroxy-4-methylphenyl)-5,5-difluoro-6-(hydroxymethyl)tetrahydro-2H-pyran-3,4-diol] | 93 | 2 | 78.3 | 65 |  |  | 
12 | OC[C@H]1O[C@@H](c2cc(Cc3ccc(OCF)cc3)c(Cl)cc2O)[C@H](O)[C@@H](O)C1(F)F [Compound 125] |  |  |  |  | 90.2 | 32.9 | 
13 | CCc1cc(O)c([C@@H]2O[C@H](CO)C(F)(F)[C@H](O)[C@H]2O)cc1Cc1ccc(OC(F)(F)F)cc1 [Compound 104] |  |  |  |  | 82.6 | 39.2 | 

Now from value to molecule, other results behind:

Row | inhibition at 0.3 µM (human SGLT2; [1]) [%] | IC50 (human SGLT2; [2]) [nM] | inhibition at 0.3 µM (human SGLT1; [3]) [%] | IC50 (human SGLT1; [4]) [nM] | SGLT2 % Inh @ 0.3 μM (human SGLT2; [1]) [%] | SGLT1 % Inh @ 0.3 μM (human SGLT1; [3]) [%] | Structure (SMILES) | also measured
14 | 85.7 | 108 | 49.9 | 779 |  |  | [2H]C([2H])(c1ccc2c(c1)OCCO2)c1cc([C@@H]2O[C@H](CO)C(F)(F)[C@H](O)[C@H]2O)ccc1CC [Compound 192] | 
15 |  |  |  |  | 64.7 | 26.5 | COc1cc(OC)c([C@@H]2O[C@H](CO)C(F)(F)[C@H](O)[C@H]2O)cc1Cc1ccc(OCF)cc1 [Compound 147] | 
16 | 83.6 | 1.3 | 60.2 | 40 |  |  | CCc1csc(Cc2cc([C@@H]3O[C@H](CO)C(F)(F)[C@H](O)[C@H]3O)c(O)cc2C)c1 [Compound 182] | 
17 | 69.4 | 3 | 62.6 | 234 |  |  | COc1cc(O)c([C@@H]2O[C@H](CO)C(F)(F)[C@H](O)[C@H]2O)cc1Cc1ccc(OCF)cc1 [Compound 142] | 
18 | 88.6 | 2.7 | 64.4 | 96 |  |  | CCc1ccc(Cc2cc([C@@H]3O[C@H](CO)C(F)(F)[C@H](O)[C@H]3O)c(O)cc2C)cc1 [Compound 131, (2S,3R,4R,6R)-2-(5-(4-ethylbenzyl)-2-hydroxy-4-methylphenyl)-5,5-difluoro-6-(hydroxymethyl)tetrahydro-2H-pyran-3,4-diol] | 
19 | 85.5 | 1.9 | 81.1 | 72 |  |  | COc1cc(O)c([C@@H]2O[C@H](CO)C(F)(F)[C@H](O)[C@H]2O)cc1Cc1ccc(C2CC2)cc1 [Compound 140] | 
20 |  |  |  |  | 78.9 | 12.1 | COc1cc(C#N)c(Cc2ccc(C3CC3)cc2)cc1[C@@H]1O[C@H](CO)C(F)(F)[C@H](O)[C@H]1O [Compound 169] | 
21 |  |  |  |  | 79.9 | 24.3 | CCc1ccc(Cc2cc([C@@H]3O[C@H](CO)C(F)(F)[C@H](O)[C@H]3O)c(O)cc2C#N)cc1 [Compound 175] | 
